Results taken from ChEMBL document CHEMBL5523739, “NN1213 - A Potent, Long-Acting, and Selective Analog of Human Amylin” (J Med Chem, 2024).

Experiments:
[1] = target: Adrenomedullin receptor, AM2; CALCRL/RAMP3 (Homo sapiens, UniProt Q16602+O60896); test: Agonist activity at human AM2R complex of CRLR/RAMP3 transduced in human HeLa cells by cAMP assay; type: functional, cell-based
Calcitonin receptor = target: T1, Calcitonin receptor (Homo sapiens, UniProt P30988); test: Agonist activity at human CTR transduced in human HeLa cells by cAMP assay; type: functional, cell-based; details: hela
T1 sequence (P30988 whole entry): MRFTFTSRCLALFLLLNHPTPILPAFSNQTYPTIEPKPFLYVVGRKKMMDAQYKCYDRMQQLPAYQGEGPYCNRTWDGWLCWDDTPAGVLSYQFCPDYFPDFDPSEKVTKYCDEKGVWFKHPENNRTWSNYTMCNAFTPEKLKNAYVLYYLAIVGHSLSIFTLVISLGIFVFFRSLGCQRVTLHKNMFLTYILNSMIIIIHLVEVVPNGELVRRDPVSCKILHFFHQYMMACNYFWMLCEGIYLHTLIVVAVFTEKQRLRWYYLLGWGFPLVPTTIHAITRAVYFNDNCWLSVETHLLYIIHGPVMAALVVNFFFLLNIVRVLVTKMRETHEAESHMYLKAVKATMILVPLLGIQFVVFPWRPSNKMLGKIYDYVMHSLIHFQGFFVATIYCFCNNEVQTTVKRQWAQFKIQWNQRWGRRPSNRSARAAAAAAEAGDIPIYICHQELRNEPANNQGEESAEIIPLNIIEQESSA

[2] = target: Amylin receptor AMY2; CALCR/RAMP2 (Homo sapiens, UniProt P30988+O60895); test: Agonist activity at human AMY2R complex of CTR/RAMP2 transduced in human HeLa cells by cAMP assay; type: functional, cell-based; details: hela
Amylin receptor AMY2; CALCR/RAMP2, sequence (O60895 whole entry, one chain of several): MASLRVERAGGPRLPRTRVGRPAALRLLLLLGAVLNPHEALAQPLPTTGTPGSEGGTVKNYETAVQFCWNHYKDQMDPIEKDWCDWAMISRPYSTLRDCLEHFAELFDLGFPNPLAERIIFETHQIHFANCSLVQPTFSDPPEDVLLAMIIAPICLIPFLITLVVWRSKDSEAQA

[3] = target: T2, Amylin receptor AMY3; CALCR/RAMP3 (Homo sapiens, UniProt P30988+O60896); test: Agonist activity at human AMY3R complex of CTR/RAMP3 transduced in human HeLa cells by cAMP assay; type: functional, cell-based
T2 sequence (P30988 whole entry): T1 sequence (P30988 whole entry)
T2 sequence (O60896 whole entry): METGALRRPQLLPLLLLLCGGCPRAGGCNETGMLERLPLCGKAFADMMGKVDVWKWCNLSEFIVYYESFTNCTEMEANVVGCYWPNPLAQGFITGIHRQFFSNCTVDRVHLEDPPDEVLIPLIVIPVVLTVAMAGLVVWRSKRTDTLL

[4] = target: Calcitonin-gene-related peptide receptor, CALCRL/RAMP1 (Homo sapiens, UniProt O60894+Q16602); test: Agonist activity at human CGRPR complex of CRLR/RAMP1 transduced in human HeLa cells by cAMP assay; type: functional, cell-based; details: hela
Calcitonin-gene-related peptide receptor, CALCRL/RAMP1, sequence (O60894 whole entry): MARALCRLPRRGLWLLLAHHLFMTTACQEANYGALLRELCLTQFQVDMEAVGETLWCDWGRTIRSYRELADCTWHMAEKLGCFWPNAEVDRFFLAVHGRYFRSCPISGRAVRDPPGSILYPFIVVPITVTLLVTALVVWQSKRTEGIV
Calcitonin-gene-related peptide receptor, CALCRL/RAMP1, sequence (Q16602 whole entry): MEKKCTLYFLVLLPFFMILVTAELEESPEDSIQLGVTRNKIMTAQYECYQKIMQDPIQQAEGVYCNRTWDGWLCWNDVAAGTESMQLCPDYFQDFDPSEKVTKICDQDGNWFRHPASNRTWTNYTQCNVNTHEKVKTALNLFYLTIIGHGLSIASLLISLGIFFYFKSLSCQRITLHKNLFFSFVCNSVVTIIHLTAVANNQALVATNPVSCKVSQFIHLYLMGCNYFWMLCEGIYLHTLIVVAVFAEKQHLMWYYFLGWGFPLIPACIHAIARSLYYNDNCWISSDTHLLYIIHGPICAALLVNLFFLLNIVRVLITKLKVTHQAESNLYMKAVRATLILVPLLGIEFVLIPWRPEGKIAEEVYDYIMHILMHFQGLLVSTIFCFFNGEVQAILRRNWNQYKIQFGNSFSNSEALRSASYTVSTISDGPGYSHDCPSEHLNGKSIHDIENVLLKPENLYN

[5] = target: Amylin receptor AMY1, CALCR/RAMP1 (Homo sapiens, UniProt P30988+O60894); test: Agonist activity at human AMY1R complex of CTR/RAMP1 transduced in human HeLa cells by cAMP assay; type: functional, cell-based; details: hela
Amylin receptor AMY1, CALCR/RAMP1, sequence (O60894 whole entry, one chain of several): as the sequence (O60894 whole entry) above

Homo sapiens [6] = species: Homo sapiens; test: Selectivity ratio of EC50 for human CTR expressed in Baby hamster kidney cells to EC50 for human AMY3R complex of CTR/RAMP3 expressed in Baby hamster kidney cells; type: cell-based
Homo sapiens [7] = species: Homo sapiens; test: Selectivity ratio of IC50 for human CTR expressed in Baby hamster kidney cell membrane to IC50 for human AMY3R complex of CTR/RAMP3 expressed in Baby hamster kidney cell membrane; type: cell-based
Rattus norvegicus [8] = species: Rattus norvegicus; test: Selectivity ratio of EC50 for rat CTR expressed in Baby hamster kidney cells to EC50 for rat AMY3R complex of CTR/RAMP3 expressed in Baby hamster kidney cells; type: cell-based
Rattus norvegicus [9] = species: Rattus norvegicus; test: Selectivity ratio of IC50 for rat CTR expressed in Baby hamster kidney cell membrane to IC50 for rat AMY3R complex of CTR/RAMP3 expressed in Baby hamster kidney cell membrane; type: cell-based

Adrenomedullin receptor, AM2; CALCRL/RAMP3, sequence (Q16602 whole entry, one chain of several): as the sequence (Q16602 whole entry) above

Molecule: CAGRILINTIDE
- pEC50 [1]: 6.12
- pEC50 (Calcitonin receptor): 10.64
- pEC50 [2]: 10.37
- pEC50 [3]: 10.33
- pEC50 [4]: 6.25
- pEC50 [5]: 10.73

Molecule: CC[C@H](C)[C@H](NC(=O)[C@H](C)NC(=O)CNC(=O)[C@H](Cc1ccccc1)NC(=O)[C@H](CC(N)=O)NC(=O)[C@@H]1CCCN1C(=O)[C@H](CO)NC(=O)[C@H](CO)NC(=O)[C@H](Cc1c[nH]cn1)NC(=O)[C@H](CCCNC(=N)N)NC(=O)[C@H](CC(C)C)NC(=O)[C@H](Cc1ccccc1)NC(=O)[C@H](CC(=O)O)NC(=O)[C@H](C)NC(=O)[C@H](CC(C)C)NC(=O)[C@H](CCCNC(=N)N)NC(=O)[C@H](CCC(N)=O)NC(=O)[C@@H](NC(=O)[C@H](C)NC(=O)[C@@H]1CSSC[C@H](NC(=O)[C@@H](N)CCCCN)C(=O)N[C@@H](CC(N)=O)C(=O)N[C@@H]([C@@H](C)O)C(=O)N[C@@H](C)C(=O)N[C@@H]([C@@H](C)O)C(=O)N1)[C@@H](C)O)C(=O)N1CCC[C@H]1C(=O)N[C@@H](CO)C(=O)N[C@H](CO)C(=O)N[C@H](C(=O)N[C@@H](CC(N)=O)C(=O)N[C@H](C(=O)NCC(=O)N[C@@H](CO)C(=O)N[C@@H](CC(=O)O)C(=O)N[C@H](C(=O)N[C@@H](Cc1ccc(O)cc1)C(N)=O)[C@@H](C)O)C(C)C)[C@@H](C)O
- Ratio EC50 (Homo sapiens [6]): 15
- Ratio IC50 (Homo sapiens [7]): 55
- Ratio EC50 (Rattus norvegicus [8]): 1340
- Ratio IC50 (Rattus norvegicus [9]): 447
